Patent US12110293B2, “Substituted triazolo quinoxaline derivatives” (GRÜNENTHAL GMBH, priority 2018, dated 2024)

Target: T1, glucocorticoid receptor (Homo sapiens, UniProt P04150)
T1 construct: expressed in transfected cells
T1 sequence (P04150 524-758 limits assumed): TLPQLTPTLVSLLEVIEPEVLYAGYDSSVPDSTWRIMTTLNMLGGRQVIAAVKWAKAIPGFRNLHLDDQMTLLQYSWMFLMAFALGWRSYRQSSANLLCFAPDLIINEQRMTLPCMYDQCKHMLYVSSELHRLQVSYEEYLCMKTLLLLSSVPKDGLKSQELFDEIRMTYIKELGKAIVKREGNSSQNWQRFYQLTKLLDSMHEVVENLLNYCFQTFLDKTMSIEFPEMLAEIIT
Assay: Agonistic mode of action on the glucocorticoid receptor (CHO-Gal4/GR luciferase reporter cell line)
Format: cell-based
Settings: range class observed in the agonistic assay or the antagonistic assay (CHO-Gal4/GR reporter cells); table does not say which mode applies per example
Excerpt: Potential selective glucocorticoid receptor modulators of this intervention can be tested for modulation of the activity of the glucocorticoid receptor using cell-based assays. These assays involve a Chinese hamster ovary (CHO) cell line which contains fragments of the glucocorticoid receptor as well as fusion proteins. The glucocorticoid receptor fragments used are capable of binding the ligand (e.g. beclomethasone) to identify molecules that compete for binding with glucocorticoid receptor ligands. In more detail, the glucocorticoid receptor ligand binding domain is 25 fused to the DNA binding domain (DBD) of the transcriptionfactor GAL4 (GAL4 DBD-GR) and is stably integrated into a CHO cell line containing a GAL4-UAS-Luciferase reporter construct. […] After cell lysis the luminescence that is produced by luciferase after addition of the substrate is detected and EC50 or IC50 values can be calculated. Engagement of molecules which induce gene expression via glucocortocoid receptor binding to the DNA leads to expression of the luciferase gene under the control of the fusion protein GAL4 DBD-GR and therefore to a dose-dependent increase of the luminescence signal. Binding of molecules which repress beclomethasone-induced gene expression of the luciferase gene under the control of the fusion protein GAL4 DBD-GR leads to a dose-dependent reduction of the luminescence signal.
Biological Assays Agonistic Mode of Action on the Glucocorticoid Receptor
The reporter cell line CHO-Gal4/GR consisted of a Chinese hamster ovary (CHO) cell line (Leibniz Institute DSMZ—German Collection of Microorganisms and Cell CuItures GmbH: ACC-110) containing a firefly luciferase gene under the control of the GR ligand binding domain fused to the DNA binding domain (DBD) of GAL4 (GAL4 DBD-GR) stably integrated into CHO cells. This cell line was established by stable transfection of CHO cells with a GAL4-UAS-Luciferase reporter construct. In a subsequent step the ligand binding domain of the GR cloned into pIRES2-EGFP-GAL4 containing the DNA binding domain of GAL4 from pFA-AT2 was transfected. This fusion construct activated firefly luciferase expression under the control of a multimerized GAL4 upstream activation sequence (UAS). The signal of the emitted luminescence was recorded by the FLIPR^TETRA. This allowed for specific detection of ligand-induced activation of the GR and therefore for the identification of compounds with agonistic properties. The GAL4/UAS reporter was premixed with a vector that constitutively expressed Renilla luciferase, which served as an internal positive control for transfection efficiency.
The complete culture medium for the assay was: • DMEM F-12 (1:1) MIXTURE (LONZA cat. N°: BE04-687F/U1) 500 mL • 5 mL of 100 mM Sodium Pyruvate (LONZA cat. N°: BE12-115E) • 25 mL of 7.5% Sodium Bicarbonate (LONZA cat. N° BE17-613E) • 6.5 mL of 1 M Hepes (LONZA cat. N°: BE17-737E) • 5 mL of 100× Penicillin/Streptomycin (LONZA cat. N° DE17-602E) • 50 mL of Fetal Bovine Serum (Euroclone cat. N° ECS 0180L) • 0.25 mL of 10 mg/mL Puromycin (InvivoGen cat.: ant-pr-1) • 0.5 mL of 100 mg/mL Zeocin (InvivoGen cat.: ant-zn-1)
Cryo-preserved CHO-Gal4/GR cells were suspended in complete medium and 5000 cells/25 μl/well were seeded into the wells of 384-well polystyrene assay plates (Thermo Scientific, cat. #4332) and cultured at 37° C., 5% CO2 and 95% humidity. After 24 hours growth medium was carefully removed and replaced by 30 μl Opti-MEM (GIBCO, cat. #31985062) as assay buffer. To test the compounds an 8-point half-log compound dilution curve was generated in 100% DMSO starting from a 2 mM stock and compounds were then diluted 1:50 in Opti-MEM. 10 μl of compounds were then added to the wells containing 30 μl Opti-MEM resulting in a final assay concentration range from 10 μM to 0.003 μM in 0.5% DMSO. Compounds were tested at 8 concentrations in quadruplicate data points.

| SMILES | IC50 or EC50 (agonist or antagonist mode not specified) |
| --- | --- |
| COCCn1ccc2c(-c3c(C)cc4c(c3F)-n3c(C)nnc3C(C)(C)N4)cccc21 [Example 337, 9-Fluoro-8-[1-(2-methoxy-ethyl)-1H-indol-4-yl]-1,4,4,7-tetramethyl-5H-[1,2,4]triazolo[4,3-a]quinoxaline] | 1000 to 15000 nM |
| Cc1nnc2n1-c1c(cc(F)c(-c3cc(F)cc4c3cnn4S(C)(=O)=O)c1F)NC2(C)C [Example 276, 7,9-Difluoro-8-(6-fluoro-1-methylsulfonyl-1H-indazol-4-yl)-1,4,4-trimethyl-5H-[1,2,4]triazolo [4,3-a]quinoxaline] | 100 to 1000 nM |
| COCCn1ccc2c(-c3c(C(F)F)cc4c(c3F)-n3c(C)nnc3C(C)(C)N4)cc(F)cc21 [Example 396, 7-(Difluoro-methyl)-9-fluoro-8-[6-fluoro-1-(2-methoxy-ethyl)-1H-indol-4-yl]-1,4,4-trimethyl-5H-[1,2,4]triazolo[4,3-a]quinoxaline] | 1000 to 15000 nM |
| COc1c(-c2cccc3c2ccn3C(=O)OC(C)(C)C)c(F)cc2c1-n1c(C)nnc1C(C)(C)N2 [Example 260, 4-(7-Fluoro-9-methoxy-1,4,4-trimethyl-5H-[1,2,4]triazolo[4,3-a]quinoxalin-8-yl)-1H-indole-1-carboxylic acid tert-butyl ester] | 100 to 1000 nM |
| CCc1c(-c2cccc3c2cnn3S(C)(=O)=O)c(F)cc2c1-n1c(C)nnc1C(C)(C)N2 [Example 51, 9-Ethyl-7-fluoro-1,4,4-trimethyl-8-(1-methylsulfonyl-1H-indazol-4-yl)-5H-[1,2,4]triazolo[4,3-a]quinoxaline] | 100 to 1000 nM |
| CCc1nnc2n1-c1c(cc(F)c(-c3cccc4c3cnn4C3CC3)c1C)NC2(C)C [Example 242, 8-(1-Cyclopropyl-1H-indazol-4-yl)-1-ethyl-7-fluoro-4,4,9-trimethyl-5H-[1,2,4]triazolo[4,3-a]quinoxaline] | 1000 to 15000 nM |
| Cc1nnc2n1-c1c(cc(F)c(-c3cc(F)cc4cc[nH]c34)c1C(F)F)NC2(C)C [Example 515, 9-(Difluoro-methyl)-7-fluoro-8-(5-fluoro-1H-indol-7-yl)-1,4,4-trimethyl-5H-[1,2,4]triazolo[4,3-a] quinoxaline] | 100 to 1000 nM |
| Cc1nnc2n1-c1c(cc(F)c(-c3cccc4[nH]ncc34)c1F)NC2(C)C [Example 232, 7,9-Difluoro-8-(1H-indazol-4-yl)-1,4,4-trimethyl-5H-[1,2,4]triazolo[4,3-a]quinoxaline] | 100 to 1000 nM |
| CCc1c[nH]c2c(-c3c(F)cc4c(c3F)-n3c(C)nnc3C(C)(C)N4)cc(F)cc12 [Example 43, 8-(3-ethyl-5-fluoro-1H-indol-7-yl)-7,9-difluoro-1,4,4-trimethyl-4,5-dihydro-[1,2,4]triazolo[4,3-a]quinoxaline] | < 100 nM |
| Cc1nnc2n1-c1c(cc(F)c(-c3cc(F)cc4[nH]c(C#N)cc34)c1F)NC2(C)C [Example 6, 4-(7,9-difluoro-1,4,4-trimethyl-4,5-dihydro-[1,2,4]triazolo[4,3-a]quinoxalin-8-yl)-6-fluoro-1H-indole-2-carbonitrile] | 1000 to 15000 nM |
| Cc1nnc2n1-c1c(ccc(-c3cccc4c3ccn4S(C)(=O)=O)c1C(F)(F)F)NC2(C)C [Example 498, 1,4,4-Trimethyl-8-(1-methylsulfonyl-1H-indol-4-yl)-9-(trifluoromethyl)-5H-[1,2,4]triazolo[4,3-a]quinoxaline] | 100 to 1000 nM |
| CCc1nnc2n1-c1c(cc(F)c(-c3cc(F)cc4c3ccn4CCOC)c1C)NC2(C)C [Example 36, 1-ethyl-7-fluoro-8-(6-fluoro-1-(2-methoxyethyl)-1H-indol-4-yl)-4,4,9-trimethyl-4,5-dihydro-[1,2,4]triazolo[4,3-a]quinoxaline] | 100 to 1000 nM |
| Cc1nnc2n1-c1c(ccc(-c3cc(F)cc4c3ccn4S(C)(=O)=O)c1C(F)(F)F)NC2(C)C [Example 499, 8-(6-Fluoro-1-methylsulfonyl-1H-indol-4-yl)-1,4,4-trimethyl-9-(trifluoromethyl)-5H-[1,2,4]triazolo[4,3-a]quinoxaline] | 100 to 1000 nM |
| CCS(=O)(=O)n1ccc2c(-c3c(OC)cc4c(c3C(F)(F)F)-n3c(C)nnc3C(C)(C)N4)cc(F)cc21 [Example 369, 8-[1-(Ethylsulfonyl)-6-fluoro-1H-indol-4-yl]-7-methoxy-1,4,4-trimethyl-9-(trifluoromethyl)-5H-[1,2,4]triazolo[4,3-a]quinoxaline] | 100 to 1000 nM |
| Cc1nnc2n1-c1c(cc(F)c(-c3cc(F)cc4c3cnn4CC(F)F)c1C(F)F)NC2(C)C [Example 472, 8-[1-(2,2-Difluoro-ethyl)-6-fluoro-1H-indazol-4-yl]-9-(difluoro-methyl)-7-fluoro-1,4,4-trimethyl-5H-[1,2,4]triazolo[4,3-a]quinoxaline] | < 100 nM |
| COc1cc2c(c(C(F)(F)F)c1-c1cccc3c(C)c[nH]c13)-n1c(C)nnc1C(C)(C)N2 [Example 357, 7-Methoxy-1,4,4-trimethyl-8-(3-methyl-1H-indol-7-yl)-9-(trifluoromethyl)-5H-[1,2,4]triazolo[4,3-a]quinoxaline] | < 100 nM |
| CCS(=O)(=O)n1ccc2c(-c3c(OC)cc4c(c3C(F)(F)F)-n3c(C)nnc3C(C)(C)N4)cccc21 [Example 371, 8-[1-(Ethylsulfonyl)-1H-indol-4-yl]-7-methoxy-1,4,4-trimethyl-9-(trifluoromethyl)-5H-[1,2,4]triazolo[4,3-a]quinoxaline] | 100 to 1000 nM |
| Cc1c(-c2cc(C(F)(F)F)cc3[nH]ccc23)c(F)cc2c1-n1c(C)nnc1C(C)(C)N2 [Example 470, 7-Fluoro-1,4,4,9-tetramethyl-8-[6-(trifluoromethyl)-1H-indol-4-yl]-5H-[1,2,4]triazolo[4,3-a]quinoxaline] | 100 to 1000 nM |
| Cc1c(-c2ccc(F)c3[nH]ccc23)c(Cl)cc2c1-n1c(C)nnc1C(C)(C)N2 [Example 506, 7-Chloro-8-(7-fluoro-1H-indol-4-yl)-1,4,4,9-tetramethyl-5H-[1,2,4]triazolo[4,3-a]quinoxaline] | 100 to 1000 nM |
| COCCn1ccc2c(-c3c(OC)cc4c(c3C)-n3c(C)nnc3C(C)(C)N4)cccc21 [Example 344, 7-Methoxy-8-[1-(2-methoxy-ethyl)-1H-indol-4-yl]-1,4,4,9-tetramethyl-5H-[1,2,4]triazolo[4,3-a] quinoxaline] | 1000 to 15000 nM |
| COc1cc2c(c(C(F)(F)F)c1-c1cc(F)cc3c(C4CC4)c[nH]c13)-n1c(C)nnc1C(C)(C)N2 [Example 482, 8-(3-Cyclopropyl-5-fluoro-1H-indol-7-yl)-7-methoxy-1,4,4-trimethyl-9-(trifluoromethyl)-5H-[1,2,4]triazolo[4,3-a]quinoxaline] | < 100 nM |
| Cc1nnc2n1-c1c(cc(F)c(-c3ccc(F)c4[nH]ccc34)c1C(F)F)NC2(C)C [Example 496, 9-(Difluoro-methyl)-7-fluoro-8-(7-fluoro-1H-indol-4-yl)-1,4,4-trimethyl-5H-[1,2,4]triazolo[4,3-a] quinoxaline] | < 100 nM |
